Measurements published in patent US20060030616A1, “Anhydride modified cantharidin analogues useful in the treatment of cancer” (priority 1998, published 2006).

What was measured:
[1] = system: HCT116 cells; assay: Cell cycle analysis, flow cytometry of propidium iodide stained cells; assay type: cell-based, human
Method: (§1) The cells are fixed in 70% ethanol and stored at −20° C. until analysis is performed (1-2 weeks). After fixing, the cells are pelleted and incubated in PBS containing propidium iodide ([…]) and RNase A (200 mg/ml) for at least 30 min at room temperature. The samples (2×10^4 events) are analysed using a Becton Dickson FACScan, fluorescence is collected in fluorescence detector 2 (FL2), filter 575/30 nm band pass. Cell cycle distribution is assessed using Cell Quest software (Becton Dickson).
(§2) The ability of the protein phosphatase inhibitors to abrogate the G1 or G2 checkpoint of the cell cycle may be determined by cell cycle analysis using flow cytometry. Briefly, asynchronous cell cultures are harvested 18 h after 6 Gy irradiation and/or 12 h incubation with the protein phosphatase inhibitor. Depending upon the p53 status of the cell line, radiation treatment alone will induce arrest in either G1 and/or G2 phase of the cell cycle.
(§3) Data shown in Table 2 and FIG. 4 show the cell cycle response of L1210, HL60, HT29 and HCT116 cells to cantharidin and the new cantharidin analogues MK-2 and MK-4 after 12 h exposure. In summary, cantharidin and MK-2 produced a similar response and induced G2 arrest in all four cell lines tested. […] HL60 and HCT116 cells. […] The magnitude of the cell cycle arrest induced by these drugs directly correlated with their cytotoxicity in the respective cell lines. […] The cytotoxicity of the […]

[2] = system: HT29 cells; assay: as above; assay type: cell-based, human; conditions: 12 h
Method: as §1, §2, §3

[3] = system: HL60 cells; assay: as above; assay type: cell-based, human; conditions: for Cell Cycle Distribution, G1 / Cell Cycle Distribution, G2 + M / Cell Cycle Distribution, S / Cell Cycle Distribution, sub G1 / Cell cycle remark: 12 h
Method: as §1, §2, §3

[4] = system: L1210 cells; assay: Checkpoint abrogation after 6 Gy radiation, flow cytometry; assay type: cell-based, murine; conditions: 12 h after drug
Method: as §1, §2
If the protein phosphatase inhibitor abrogates the G2 checkpoint then the cells will not arrest in the G2 phase of the cell cycle and the cells will continue through the cell cycle and accumulate in the G1 phase of the cell cycle only. Similarily if the protein phosphatase inhibitors abrogates the G1 checkpoint then the cells will not arrest in the G1 phase of the cell cycle and accumulate in the G2 phase of the cell cycle only. Cell cycle analysis using propidium iodide labelling of DNA has been used extensively in our laboratory to assess the effect of specific anticancer agents that induce S-phase cell cycle arrest and apoptotic cell death (Sakoff, Ackland and Stewart, 1998). Experiments were performed on a Becton Dickinson FACScan and using Cell Quest software.
The cells were treated with 6 Gy of radiation and then treated with cantharidin 6 h later. The ability to abrogate cell cycle arrest was assessed is 12 h after the addition of the drugs.

SMILES: O=C1OC(=O)C2C3C=CC(O3)C12 (stereo not shown) [MK-2]
- Cell Cycle Distribution, G1 ([1]; HCT116, 50 μM, 12 h): 47.2 percentage of total
- Cell Cycle Distribution, G2 + M ([1]; HCT116, 50 μM, 12 h): 37.4 percentage of total
- Cell Cycle Distribution, S ([1]; HCT116, 50 μM, 12 h): 13.8 percentage of total
- Cell Cycle Distribution, sub G1 ([1]; HCT116, 50 μM, 12 h): 1.3 percentage of total
- Cell Cycle Distribution, G1 ([1]; HCT116, 100 μM, 12 h): 47.2 percentage of total
- Cell Cycle Distribution, G2 + M ([1]; HCT116, 100 μM, 12 h): 34.5 percentage of total
- Cell Cycle Distribution, S ([1]; HCT116, 100 μM, 12 h): 16.0 percentage of total
- Cell Cycle Distribution, sub G1 ([1]; HCT116, 100 μM, 12 h): 1.7 percentage of total
- Cell Cycle Distribution, G1 ([1]; HCT116, 250 μM, 12 h): 52.8 percentage of total
- Cell Cycle Distribution, G2 + M ([1]; HCT116, 250 μM, 12 h): 34.3 percentage of total
- Cell Cycle Distribution, S ([1]; HCT116, 250 μM, 12 h): 11.1 percentage of total
- Cell Cycle Distribution, sub G1 ([1]; HCT116, 250 μM, 12 h): 1.4 percentage of total
- Cell Cycle Distribution, G1 ([1]; HCT116, 500 μM, 12 h): 39.4 percentage of total
- Cell Cycle Distribution, G2 + M ([1]; HCT116, 500 μM, 12 h): 46.5 percentage of total
- Cell Cycle Distribution, S ([1]; HCT116, 500 μM, 12 h): 11.3 percentage of total
- Cell Cycle Distribution, sub G1 ([1]; HCT116, 500 μM, 12 h): 2.5 percentage of total
- Cell cycle remark ([1]; HCT116, 500 μM, 12 h): G2 arrest
- Cell cycle response ([1]; HCT116, 12 h exposure): G2 arrest
- Cell Cycle Distribution, G1 ([2]; HT29, 50 μM): 45.3 percentage of total
- Cell Cycle Distribution, G2 + M ([2]; HT29, 50 μM): 37.1 percentage of total
- Cell Cycle Distribution, S ([2]; HT29, 50 μM): 7.6 percentage of total
- Cell Cycle Distribution, sub G1 ([2]; HT29, 50 μM): 9.4 percentage of total
- Cell Cycle Distribution, G1 ([2]; HT29, 100 μM): 49.8 percentage of total
- Cell Cycle Distribution, G2 + M ([2]; HT29, 100 μM): 37.6 percentage of total
- Cell Cycle Distribution, S ([2]; HT29, 100 μM): 8.2 percentage of total
- Cell Cycle Distribution, sub G1 ([2]; HT29, 100 μM): 3.6 percentage of total
- Cell Cycle Distribution, G1 ([2]; HT29, 250 μM): 41.4 percentage of total
- Cell Cycle Distribution, G2 + M ([2]; HT29, 250 μM): 42.5 percentage of total
- Cell Cycle Distribution, S ([2]; HT29, 250 μM): 11.2 percentage of total
- Cell Cycle Distribution, sub G1 ([2]; HT29, 250 μM): 4.2 percentage of total
- Cell cycle remark ([2]; HT29, 250 μM): G2 arrest
- Cell Cycle Distribution, G1 ([2]; HT29, 500 μM): 44.5 percentage of total
- Cell Cycle Distribution, G2 + M ([2]; HT29, 500 μM): 33.6 percentage of total
- Cell Cycle Distribution, S ([2]; HT29, 500 μM): 15.4 percentage of total
- Cell Cycle Distribution, sub G1 ([2]; HT29, 500 μM): 5.2 percentage of total
- Cell cycle remark ([2]; HT29, 500 μM): S-phase↑
- Cell Cycle Distribution, G1 ([3]; HL60, 50 μM): 44.1 percentage of total
- Cell Cycle Distribution, G2 + M ([3]; HL60, 50 μM): 31.4 percentage of total
- Cell Cycle Distribution, S ([3]; HL60, 50 μM): 23.8 percentage of total
- Cell Cycle Distribution, sub G1 ([3]; HL60, 50 μM): 1.8 percentage of total
- Cell Cycle Distribution, G1 ([3]; HL60, 100 μM): 43.3 percentage of total
- Cell Cycle Distribution, G2 + M ([3]; HL60, 100 μM): 32.4 percentage of total
- Cell Cycle Distribution, S ([3]; HL60, 100 μM): 23.6 percentage of total
- Cell Cycle Distribution, sub G1 ([3]; HL60, 100 μM): 1.8 percentage of total
- Cell Cycle Distribution, G1 ([3]; HL60, 250 μM): 37.7 percentage of total
- Cell Cycle Distribution, G2 + M ([3]; HL60, 250 μM): 36.4 percentage of total
- Cell Cycle Distribution, S ([3]; HL60, 250 μM): 23.8 percentage of total
- Cell Cycle Distribution, sub G1 ([3]; HL60, 250 μM): 3.2 percentage of total
- Cell cycle remark ([3]; HL60, 250 μM): G2 arrest
- Cell Cycle Distribution, G1 ([3]; HL60, 500 μM): 17.8 percentage of total
- Cell Cycle Distribution, G2 + M ([3]; HL60, 500 μM): 43.1 percentage of total
- Cell Cycle Distribution, S ([3]; HL60, 500 μM): 21.6 percentage of total
- Cell Cycle Distribution, sub G1 ([3]; HL60, 500 μM): 18.8 percentage of total
- Cell cycle remark ([3]; HL60, 500 μM): Cell death
- Cell cycle response ([3]; HL60, 12 h exposure): G2 arrest
- Cell Cycle Distribution, G1 ([4]; L1210, 50 μM, 18 h after 6Gy): 19.0 percentage of total
- Cell Cycle Distribution, G2 + M ([4]; L1210, 50 μM, 18 h after 6Gy): 50.1 percentage of total
- Cell Cycle Distribution, S ([4]; L1210, 50 μM, 18 h after 6Gy): 27.8 percentage of total
- Cell Cycle Distribution, sub G1 ([4]; L1210, 50 μM, 18 h after 6Gy): 4.0 percentage of total
- Cell Cycle Distribution, G1 ([4]; L1210, 100 μM, 18 h after 6Gy): 18.4 percentage of total
- Cell Cycle Distribution, G2 + M ([4]; L1210, 100 μM, 18 h after 6Gy): 55.8 percentage of total
- Cell Cycle Distribution, S ([4]; L1210, 100 μM, 18 h after 6Gy): 23.0 percentage of total
- Cell Cycle Distribution, sub G1 ([4]; L1210, 100 μM, 18 h after 6Gy): 3.5 percentage of total
- Cell Cycle Distribution, G1 ([4]; L1210, 250 μM, 18 h after 6Gy): 11.2 percentage of total
- Cell Cycle Distribution, G2 + M ([4]; L1210, 250 μM, 18 h after 6Gy): 71.9 percentage of total
- Cell Cycle Distribution, S ([4]; L1210, 250 μM, 18 h after 6Gy): 10.0 percentage of total
- Cell Cycle Distribution, sub G1 ([4]; L1210, 250 μM, 18 h after 6Gy): 6.9 percentage of total
- Cell Cycle Distribution, G1 ([4]; L1210, 500 μM, 18 h after 6Gy): 3.4 percentage of total
- Cell Cycle Distribution, G2 + M ([4]; L1210, 500 μM, 18 h after 6Gy): 88.4 percentage of total
- Cell Cycle Distribution, S ([4]; L1210, 500 μM, 18 h after 6Gy): 2.9 percentage of total
- Cell Cycle Distribution, sub G1 ([4]; L1210, 500 μM, 18 h after 6Gy): 5.4 percentage of total
- Checkpoint remark ([4]; L1210, 500 μM, 18 h after 6Gy): G1 abrogation
- Checkpoint abrogation ([4]; L1210, 6 Gy): abrogated radiation induced G1 arrest
